Source: publication PMC6934184, “Selective DNA-PKcs inhibition extends the therapeutic index of localized radiotherapy and chemotherapy” (The Journal of Clinical Investigation, 2019)

Biological target: T1, MYLK (MLCK) (Homo sapiens, UniProt Q15746)
T1 construct: purchased Thermo Fisher Scientific (Life Technologies) SelectScreen
Assay: SelectScreen LanthaScreen
Assay type: binding
Conditions: read-out: % displacement
Description: The in vitro kinase selectivity of NU5455 was determined using the SelectScreen Broad Assay Panel (Thermo Fisher Scientific) involving activity and binding assays (Supplemental Table 1). […] Class IA PI3Ks were measured using the p85α subunit.
Kinase [ATP] % Assay Kinase [ATP] % Assay Kinase [ATP] % Assay Kinase [ATP] % Assay
DNA-PK Km app 98.3 Z LATS2 n/a 4.7 L KIT D820E n/a 1.3 L GSK3B (GSK3 beta) Km app -2.5 Z
PIK3C3 (hVPS34) Km app 85.9 A PRKCZ (PKC zeta) Km app 4.7 Z GRK1 n/a 1.3 L BMPR2 n/a -2.5 L
PIK3C2B (PI3K-C2 beta) 10 28.9 A FGFR1 Km app 4.7 Z BRSK2 n/a 1.2 L CDC42 BPB (MRCKB) Km app -2.5 Z
SNF1LK2 Km app 26.6 Z MINK1 Km app 4.6 Z NUAK1 (ARK5) Km app 1.2 A AMPK (A2/B2/G2) n/a -2.6 L
HCK Km app 18.0 Z CSF1R (FMS) Km app 4.3 Z CDK9/cyclin K n/a 1.0 L PRKG1 Km app -2.7 Z
NEK2 Km app 17.8 Z CSNK1G3 (CK1 gamma 3) Km app 4.2 Z NUAK2 n/a 1.0 L KIT T670E n/a -2.8 L
ALK Km app 17.3 Z STK32C (YANK3) n/a 4.2 L CDK2/cyclin O n/a 0.9 L ERBB4 (HER4) Km app -2.8 Z
FGFR3 K650M n/a 16.5 L STK22D (TSSK1) Km app 4.2 Z CAMKK2 (CaMKK beta) n/a 0.9 L PLK4 n/a -2.8 L
SIK3 n/a 16.1 L TAOK3 (JIK) n/a 4.2 L FGFR3 Km app 0.9 Z GRK7 Km app -3.0 Z
LYN A Km app 15.2 Z RPS6KA4 (MSK2) Km app 4.2 Z ULK2 n/a 0.9 L MAPKAPK2 Km app -3.1 Z
BMPR1B (ALK6) n/a 14.5 L PTK2B (FAK2) Km app 4.2 Z KIT D816V n/a 0.9 L FGFR4 Km app -3.1 Z
INSRR (IRR) Km app 14.1 Z CLK2 Km app 4.1 Z CAMK1 (CaMK1) 10 0.8 A CASK n/a -3.1 L
PLK2 Km app 14.1 Z STK24 (MST3) Km app 4.1 Z PTK6 (Brk) Km app 0.7 Z GRK5 Km app -3.2 Z
PRKACA (PKA) Km app 14.0 Z CAMK1D (CaMKI delta) Km app 4.1 Z CAMK2B (CaMKII beta) Km app 0.7 Z EGFR (ErbB1) T790M Km app -3.3 Z
EIF2AK2 (PKR) n/a 13.3 L INSR Km app 4.1 Z ACVR1 (ALK2) n/a 0.7 L PAK4 Km app -3.3 Z
PRKX Km app 12.5 Z IRAK1 Km app 4.0 A ABL1 H396P n/a 0.6 L DAPK3 (ZIPK) Km app -3.4 Z
FGR Km app 12.1 Z SRC N1 Km app 3.9 Z MERTK (cMER) A708S n/a 0.6 L RET M918T n/a -3.5 L
CLK1 Km app 11.7 Z SRPK2 Km app 3.9 Z MAPKAPK5 (PRAK) Km app 0.6 Z PRKCQ (PKC theta) Km app -3.7 Z
MARK3 Km app 11.4 Z RPS6KA6 (RSK4) Km app 3.8 Z AKT1 (PKB alpha) Km app 0.5 Z CAMKK1 (CAMKKA) n/a -3.8 L
PDGFRB (PDGFR beta) Km app 11.0 Z GRK6 Km app 3.7 Z NTRK3 (TRKC) Km app 0.4 Z FLT3 D835Y Km app -3.9 Z
PRKCN (PKD3) Km app 10.7 Z PKN1 (PRK1) Km app 3.6 Z ZAP70 Km app 0.3 Z ROCK2 Km app -4.1 Z
STK16 (PKL12) n/a 10.5 L MAP3K8 (COT) 100 3.5 Z CSNK1A1 (CK1 alpha 1) Km app 0.3 Z CHUK (IKK alpha) Km app -4.2 A
FES (FPS) Km app 10.4 Z FLT4 (VEGFR3) Km app 3.5 Z MYLK (MLCK) n/a 0.2 L AXL Km app -4.2 Z
ABL1 Km app 10.4 Z GRK4 Km app 3.5 Z MKNK2 (MNK2) n/a 0.2 L PIM2 Km app -4.3 Z
MUSK Km app 10.3 Z FRK (PTK5) Km app 3.4 Z AMPK (A1/B1/G3) n/a 0.2 L PAK1 Km app -4.4 Z
MAPK1 (ERK2) Km app 10.1 Z FYN A n/a 3.3 L MAP3K2 (MEKK2) n/a 0.1 L BMPR1A (ALK3) n/a -4.4 L
BRAF 100 9.9 Z CDK1/cyclin A2 n/a 3.3 L CDK8/cyclin C n/a 0.1 L STK4 (MST1) Km app -4.4 Z
IGF1R Km app 9.7 Z KIT V559D T670I n/a 3.1 L MARK2 Km app 0.1 Z PRKCH (PKC eta) Km app -4.6 Z
MAPK14 (p38 alpha) Km app 9.7 Z SPHK2 10 3.1 A ICK n/a 0.0 L SGKL (SGK3) Km app -4.6 Z
LCK Km app 9.6 Z FGFR3 G697C n/a 3.1 L FGFR2 Km app 0.0 Z PI4KB (PI4K beta) Km app -4.7 A
MAPK11 (p38 beta) Km app 9.5 Z RIPK2 n/a 3.1 L AKT2 (PKB beta) Km app 0.0 Z PRKCE (PKC epsilon) Km app -4.9 Z
SRC Km app 9.5 Z PAK6 Km app 3.0 Z EPHB2 Km app -0.1 Z PHKG1 Km app -5.0 Z
CHEK1 (CHK1) Km app 9.3 Z LYN B Km app 3.0 Z TGFBR2 n/a -0.1 L PDGFRA D842V Km app -5.0 Z
CAMK2D (CaMKII delta) Km app 9.3 Z DAPK2 n/a 2.9 L TEK (Tie2) Km app -0.1 Z PRKG2 (PKG2) Km app -5.1 Z
PLK1 Km app 9.2 Z EPHA4 Km app 2.9 Z AURKA (Aurora A) Km app -0.1 Z TYRO3 (RSE) Km app -5.1 Z
RET Y791F Km app 9.2 Z PIK3CG (p110 gamma) Km app 2.9 A KIT D816H n/a -0.2 L TAOK2 (TAO1) Km app -5.1 Z
FLT3 Km app 9.1 Z HIPK1 (Myak) Km app 2.8 Z KIT N822K n/a -0.2 L EPHB4 Km app -5.3 Z
MAPK10 (JNK3) 100 9.0 Z ADRBK2 (GRK3) Km app 2.8 Z PRKACG (PRKAC gamma) n/a -0.2 L AURKC (Aurora C) Km app -5.4 Z
CSNK2A2 (CK2 alpha 2) Km app 8.7 Z STK17B (DRAK2) n/a 2.7 L TEK (TIE2) Y1108F n/a -0.3 L JAK1 Km app -5.7 Z […]

T1 sequence (Q15746 whole entry): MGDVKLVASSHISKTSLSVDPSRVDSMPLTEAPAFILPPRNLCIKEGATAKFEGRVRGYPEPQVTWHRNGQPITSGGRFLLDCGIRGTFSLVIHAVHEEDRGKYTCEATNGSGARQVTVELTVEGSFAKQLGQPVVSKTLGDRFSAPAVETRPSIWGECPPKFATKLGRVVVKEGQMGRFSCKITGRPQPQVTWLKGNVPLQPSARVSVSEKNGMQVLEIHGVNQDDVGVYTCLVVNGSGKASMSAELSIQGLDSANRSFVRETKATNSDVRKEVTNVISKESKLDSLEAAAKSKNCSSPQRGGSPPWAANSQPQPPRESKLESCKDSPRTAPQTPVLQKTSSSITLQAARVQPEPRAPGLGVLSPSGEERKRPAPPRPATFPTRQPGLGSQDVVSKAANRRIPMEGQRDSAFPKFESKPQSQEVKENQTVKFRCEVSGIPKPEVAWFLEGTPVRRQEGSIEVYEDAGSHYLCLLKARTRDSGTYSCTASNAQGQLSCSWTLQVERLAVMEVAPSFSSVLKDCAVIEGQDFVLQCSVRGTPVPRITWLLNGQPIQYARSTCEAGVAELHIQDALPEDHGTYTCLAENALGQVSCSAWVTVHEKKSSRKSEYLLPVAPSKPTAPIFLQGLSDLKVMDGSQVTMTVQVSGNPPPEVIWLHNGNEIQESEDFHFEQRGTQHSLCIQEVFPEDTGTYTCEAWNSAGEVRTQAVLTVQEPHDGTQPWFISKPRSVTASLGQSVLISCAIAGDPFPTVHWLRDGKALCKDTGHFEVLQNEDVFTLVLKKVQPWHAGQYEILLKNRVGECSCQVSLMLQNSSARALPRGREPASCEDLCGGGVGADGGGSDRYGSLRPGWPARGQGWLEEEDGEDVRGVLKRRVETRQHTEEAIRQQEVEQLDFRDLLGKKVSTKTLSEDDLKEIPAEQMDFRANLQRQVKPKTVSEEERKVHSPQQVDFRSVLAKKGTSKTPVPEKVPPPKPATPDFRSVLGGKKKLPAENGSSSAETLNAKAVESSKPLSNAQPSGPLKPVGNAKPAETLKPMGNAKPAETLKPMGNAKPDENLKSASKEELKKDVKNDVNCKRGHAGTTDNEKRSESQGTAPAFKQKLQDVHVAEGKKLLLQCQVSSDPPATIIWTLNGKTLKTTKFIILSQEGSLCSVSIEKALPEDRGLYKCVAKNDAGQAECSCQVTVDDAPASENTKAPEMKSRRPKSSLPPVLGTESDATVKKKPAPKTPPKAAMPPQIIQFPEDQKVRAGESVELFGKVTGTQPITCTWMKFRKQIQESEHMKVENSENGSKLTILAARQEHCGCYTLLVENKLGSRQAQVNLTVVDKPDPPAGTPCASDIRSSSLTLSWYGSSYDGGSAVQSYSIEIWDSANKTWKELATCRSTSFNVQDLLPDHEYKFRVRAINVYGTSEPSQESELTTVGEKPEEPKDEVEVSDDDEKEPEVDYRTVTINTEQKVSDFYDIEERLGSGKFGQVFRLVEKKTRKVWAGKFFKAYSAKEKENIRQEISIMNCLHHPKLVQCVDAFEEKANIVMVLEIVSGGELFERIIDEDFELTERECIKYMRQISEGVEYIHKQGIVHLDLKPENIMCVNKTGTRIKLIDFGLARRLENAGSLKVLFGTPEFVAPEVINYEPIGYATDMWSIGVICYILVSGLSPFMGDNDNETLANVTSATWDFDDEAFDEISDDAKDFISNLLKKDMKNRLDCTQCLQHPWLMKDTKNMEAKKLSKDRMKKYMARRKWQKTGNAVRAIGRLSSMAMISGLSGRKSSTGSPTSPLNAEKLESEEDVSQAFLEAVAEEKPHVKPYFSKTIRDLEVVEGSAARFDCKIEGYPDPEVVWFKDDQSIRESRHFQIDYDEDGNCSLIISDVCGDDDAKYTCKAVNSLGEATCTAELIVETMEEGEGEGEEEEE

SMILES: CN(C(=O)CN1CCOCC1)c1ccc2sc3c(-c4cccc5c(=O)cc(N6CC7CCC(C6)O7)oc45)cccc3c2c1 [NU5455]
- inhibition at 1 µM: 0.2%
